How the values were obtained:
[1] = design: method as in PMID 30232095; details: native peptide ref 9; cited from earlier work
sst4 receptor = molecular target: T1, sst4 receptor (Homo sapiens, UniProt P31391); assay: sst4 receptor-linked G-protein activation, [35S]GTPγS binding assay on membranes of sst4-expressing CHO cells; assay type: biochemical
T1 construct: expressed in transfected cells; host or cells: CHO cells
Method: Membrane fractions were prepared from CHO cells, which express the sst4 receptor, in Tris–ethylene glycol-bis(2-aminoethyl)tetraacetic acid (Tris–EGTA) buffer (50 mM Tris–HCl (Sigma, St. Louis, MO, USA), 1 mM EGTA (Sigma, St. Louis, MO, USA), 3 mM MgCl2 (Sigma, St. Louis, MO, USA), 100 mM NaCl (Sigma, St. Louis, MO, USA), pH 7.4, 10 μg of protein/sample). The fractions were incubated in the buffer containing 0.05 nM guanosine triphosphate (GTP) (BioChemica International Inc., Melbourne, Florida, USA), labeled on the gamma phosphate group with ^35S ([^35S]GTPγS) (Isotop Institute, Budapest, Hungary) and increasing concentrations (1 nM to 10 µM) of C1, C2, C3 and C4 compounds for 60 min at 30 °C, in the presence of 30 μM guanosine diphosphate (GDP) (Sigma, St. Louis, MO, USA). We determined the nonspecific binding in the presence of 10 μM unlabeled GTPγS and total binding in the absence of test compounds. Samples were filtrated through Whatman GF/B glass fiber filters using 48-well Slot Blot Manifold from Cleaver Scientific (Cleaver Scientific Ltd., Rugby, Warwickshire, United Kingdom). Filters were washed with ice-cold 50 mM Tris–HCl buffer (pH 7.4) and radioactivity was measured in a β-counter (PerkinElmer Inc., Waltham, MA, USA). The test-compound-induced G-protein activation was given as percentage over the specific [^35S]GTPγS binding detected in the absence of agonists.
In the sst4 receptor activation assay, all the compounds were dissolved in dimethyl sulfoxide (DMSO) (Szkarabeusz Ltd., Pécs, Hungary). The concentration of the stock solutions was 10 mM and was diluted with distilled water to reach the final concentrations. For the in vivo experiments, 1 mg of the compounds was rubbed dry in a braying mortar, suspended thoroughly in 1 mL 1.25% methylcellulose (MC) (Pharmacy of University of Pécs, Pécs, Hungary) solution and then dissolved in sterile bidistilled water to get a 1000 µg/mL stock solution freshly every experimental day. Most microsuspensions looked opalescent; they were shaken properly, sonicated, and further diluted with 1.25% MC to obtain the 25 µg/mL solution for oral administrations (0.2 mL/10 g body weight for the 500 µg/kg dose). The solutions were shaken and sonicated again directly before use. The vehicle was always 1.25% MC dissolved in sterile bidistilled water.

Male NMRI mice = test system: Male NMRI mice; design: method as in PMID 16697366, PMID 12122501; details: 10–100 µg/kg i.p. ref 15, 27; cited from earlier work

T1 sequence (P31391 whole entry): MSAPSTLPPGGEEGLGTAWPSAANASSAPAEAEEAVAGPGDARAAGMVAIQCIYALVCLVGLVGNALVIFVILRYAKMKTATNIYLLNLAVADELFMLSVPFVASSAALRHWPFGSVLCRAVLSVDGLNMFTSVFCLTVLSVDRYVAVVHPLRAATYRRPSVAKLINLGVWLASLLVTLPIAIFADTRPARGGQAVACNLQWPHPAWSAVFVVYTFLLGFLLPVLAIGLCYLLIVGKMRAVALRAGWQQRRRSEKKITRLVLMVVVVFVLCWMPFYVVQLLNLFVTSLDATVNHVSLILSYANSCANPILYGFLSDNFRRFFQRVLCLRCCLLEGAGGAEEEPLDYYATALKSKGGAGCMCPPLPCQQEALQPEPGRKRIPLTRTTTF

**Q.** With “somatostatin: native peptide released from capsaicin-sensitive sensory nerve terminals” as the molecule, how does the Elimination half-life [1] read?
**A.** < 3 min

**Q.** Which results are given for `COc1ccc(CNc2ncnc3c2c(C)c(C)n3Cc2ccccc2)cc1` [Compound 4, 4-Methoxy-benzyl-[7-benzyl-5,6-dimethyl-7H-pyrrolo[2,3-d]pyrimidin-4-yl]-amine]?
**A.** EC50 (sst4 receptor; 1 nM to 10 µM, n = 3): 70 nM; Emax (sst4 receptor; [35S]GTPγS binding, mean ± SEM, n = 3, read-out: Maximal activation over the basal activity of the receptor (efficacy)): 177%

**Q.** With `Cc1ccc(S(=O)(=O)N[C@@H](CCN)C(=O)N[C@@H](Cc2ccccc2)C(N)=O)c2ccccc12` [Compound J-2156] as the molecule, how does the “Analgesic effect in partial sciatic nerve ligation model” value (Male NMRI mice) read?
**A.** potent and dose-dependent analgesic effects

From paper PMC6940912, “Novel Drug-Like Somatostatin Receptor 4 Agonists are Potential Analgesics for Neuropathic Pain” (International Journal of Molecular Sciences, 2019)
